Laboratory results reported in patent US20250152718A1, “NUCLEIC ACID DELIVERY MATERIAL” (National University Corporation Tokai National Higher …, priority 2022, published 2025).

system: HEK293T cells; assay: Nucleic acid delivery test (plasmid DNA with GFP gene, quantitative PCR); assay type: cell-based; conditions: buffered saline HBS, plasmid DNA 4.7 kb with GFP gene, after 48 hours
Description: Dimethylformamide solutions (10 mmol/L, 1 μL) of the aromatic compounds shown in Tables 1 and 2 were each dissolved in the buffered salines (25 μL) shown in Tables 1 and 2. However, in Comparative Example 2, no aromatic compound was used, and only dimethylformamide was used. The two resulting solutions were mixed and allowed to stand at room temperature for 30 minutes to complex the aromatic compound with the plasmid DNA. Thereafter, 450 μL of the buffered saline used for the complexification and 500 μL of Dulbecco's modified Eagle medium (DMEM, Wako) containing 10% fetal bovine serum were added, and the resulting complex was added to HEK293T cells (mammalian cells). After 48 hours, the amount of nucleic acid was measured by quantitative PCR.
In Tables 1 to 3, as for the buffered salines, “MEM” means Eagle's minimum essential medium, “TBS” means Tris-buffered saline, “HBS” means HEPES-buffered saline, and “MBS” means MES-buffered saline.

SMILES | Amount of nucleic acid relative comparison with Example 1
NCCOc1ccc(-c2cc3c(-c4ccc(OCCN)cc4)cc4c(-c5ccc(OCCN)cc5)cc5c(-c6ccc(OCCN)cc6)cc6c(-c7ccc(OCCN)cc7)cc2c2c6c5c4c32)cc1 [KTU204] | 0.6309
c1cc(N2CCNCC2)ccc1-c1cc2c(-c3ccc(N4CCNCC4)cc3)cc3c(-c4ccc(N5CCNCC5)cc4)cc4c(-c5ccc(N6CCNCC6)cc5)cc5c(-c6ccc(N7CCNCC7)cc6)cc1c1c5c4c3c21 [KTU205] | 1.112
NCCc1ccc(-c2cc3c(-c4ccc(CCN)cc4)cc4c(-c5ccc(CCN)cc5)cc5c(-c6ccc(CCN)cc6)cc6c(-c7ccc(CCN)cc7)cc2c2c6c5c4c32)cc1 [KTU192] | 0.6727
